Assay type in all cases: in vivo, Erysiphe graminis
For one assay, the system named is powdery mildew in wheat. Put plainly: Control of powdery mildew on potted wheat plants in growth chamber. Details: ED90: unit not given beside the values. Particulars: for Observed Control (%): wheat. The procedure:
(§1) β Amionbutyric acid and component (b) fungicides were tested against fungi on potted plants, as follows:
(§2) 12-15 seeds were sown in a pot of 0.5 liter in a mixture of ground, sand, and Perlite in a ratio of 1;1;1. After two weeks in a growth chamber the plants were used for experimentation only when the first true leave appeared. Spraying was done until runoff; waiting in the growth chamber for 24 hours. Inoculations of the fungus was done via dusting the plants with plants already infected. The then dusted plants were incubated 7 to 10 days at 20° in a growth chamber with an exposure of 12 hours to light at an intensity of 7000-800 lucs. The results of the fungul growth was done via visual estimation (0 to 4) of the infected leaves. The existence of synergism between the active components was calculated according to the Abbott Equation. [formula]
(§3) a=% control b the β-arninobutyric acid.
(§4) b=% control by the second component.
(§5) and where the synergism factor. SF is calculated thusly [formula]

Assay [1] deals with powdery mildew in cucumber. Put plainly: Control of powdery mildew on potted cucumber plants in growth chamber. The following applies: for Observed Control (%): cucumber. The protocol: as §1, §2, §3, §4, §5
The subject of a further assay is powdery mildew in barley. Put plainly: Control of powdery mildew on potted barley plants in growth chamber. The procedure:
as §1, §2, §3, §4, §5

On to `Fc1ccc([C@]2(Cn3cncn3)O[C@H]2c2ccccc2Cl)cc1` (racemic) [Epoxiconazole, epoxiconazole], for which the results for the ED90 (with powdery mildew in wheat (wheat (Table 6)); in assay [1] (cucumber (Table 9))) were 0.5 and 5.5, respectively. The “Observed Control (%)” value in the assay on powdery mildew in wheat (Epoxiconazole 0.15 ppm alone) is listed as 25%; with powdery mildew in wheat (Epoxiconazole 0.6 ppm alone) it was 98%; with powdery mildew in wheat (Epoxiconazole 2.5 ppm alone), 100%; with powdery mildew in wheat (Epoxiconazole 10 ppm alone), 100%; in assay [1] (Epoxiconazole 2.5 ppm alone), 60%; in assay [1] (Epoxiconazole 5 ppm alone), 96%. Moreover, the “Observed Control (%)” value came to 96% in assay [1] (Epoxiconazole 10 ppm alone) and 100% in assay [1] (Epoxiconazole 20 ppm alone).
In the case of `CCCN(CCOc1c(Cl)cc(Cl)cc1Cl)C(=O)n1ccnc1` [Prochloraz, prochloraz], the “Observed Control (%)” value with powdery mildew in wheat (Prochloraz 1.25 ppm alone) came to 33%; in the assay on powdery mildew in wheat (Prochloraz 5 ppm alone) it was 42%; in the assay with powdery mildew in wheat (Prochloraz 10 ppm alone), 52%; with powdery mildew in barley (Prochloraz 1.25 ppm alone) it was 43%; in the assay with powdery mildew in barley (Prochloraz 5 ppm alone), 67%; in the assay with powdery mildew in barley (Prochloraz 10 ppm alone), 74%.
For the molecule `CCCC1COC(Cn2cncn2)(c2ccc(Cl)cc2Cl)O1` (stereo not shown) [Propiconazole, propiconazole], the “Observed Control (%)” value in the assay with powdery mildew in wheat (Propiconazole 0.5 ppm alone) was found to be 25%; in the assay with powdery mildew in wheat (Propiconazole 1 ppm alone), 50%; with powdery mildew in wheat (Propiconazole 2 ppm alone) it was 83%; in the assay on powdery mildew in barley (Propiconazole 0.5 ppm alone), 75%; with powdery mildew in barley (Propiconazole 1 ppm alone), 88%; in the assay with powdery mildew in barley (Propiconazole 2 ppm alone), 94%.
Consider `CC(C)(C)C(O)(CCc1ccc(Cl)cc1)Cn1cncn1` (stereo not shown) [Tebuconazole, tebuconazole], for which the values for the ED90 (with powdery mildew in wheat (wheat (Table 5)); in assay [1] (cucumber (Table 8))) were 1.0 and 14, respectively. In addition, the “Observed Control (%)” value in the assay on powdery mildew in wheat (Tebuconazole 0.15 ppm alone) is 25%; in the assay on powdery mildew in wheat (Tebuconazole 0.6 ppm alone), 63%; in the assay on powdery mildew in wheat (Tebuconazole 2.5 ppm alone) it was 100%; in the assay with powdery mildew in wheat (Tebuconazole 10 ppm alone), 100%; in assay [1] (Tebuconazole 2.5 ppm alone) it was 0%; in assay [1] (Tebuconazole 5 ppm alone), 80%. The results for the “Observed Control (%)” value in assay [1] (Tebuconazole 10 ppm alone) and in assay [1] (Tebuconazole 20 ppm alone) were 80% and 92%, respectively.
As for `CC(C)(C)C(O)C(Oc1ccc(Cl)cc1)n1cncn1` (stereo not shown) [Triadimenol, triadimenol], the ED90 amounted to 1.0 with powdery mildew in wheat (wheat (Table 7)) and 9.4 in assay [1] (cucumber (Table 10)). In addition, the “Observed Control (%)” value with powdery mildew in wheat (Triadimenol 0.15 ppm alone) stood at 25%; in the assay with powdery mildew in wheat (Triadimenol 0.6 ppm alone), 98%; with powdery mildew in wheat (Triadimenol 2.5 ppm alone), 100%; with powdery mildew in wheat (Triadimenol 10 ppm alone), 100%; in assay [1] (Triadimenol 2.5 ppm alone), 60%; in assay [1] (Triadimenol 5 ppm alone), 88%. Further, the “Observed Control (%)” value in assay [1] (Triadimenol 10 ppm alone) and in assay [1] (Triadimenol 20 ppm alone) was 96% each time.
Regarding `CC(N)CC(=O)O` (stereo not drawn) [β-Aminobutyric acid, β-aminobutyric acid], the ED90 in the assay with powdery mildew in wheat (wheat (Table 5)), in the assay with powdery mildew in wheat (wheat (Table 6)) and with powdery mildew in wheat (wheat (Table 7)) was 684 each time. For the same molecule, the “Observed Control (%)” value in the assay on powdery mildew in wheat (BABA 16 ppm alone (Table 4)) stood at 0%; in the assay on powdery mildew in wheat (BABA 62 ppm alone (Table 4)), 8%; in the assay with powdery mildew in wheat (BABA 125 ppm alone (Table 2)), 8%; with powdery mildew in wheat (BABA 125 ppm alone (Table 5)) it was 13%; in the assay on powdery mildew in wheat (BABA 125 ppm alone (Table 6)), 13%; in the assay with powdery mildew in wheat (BABA 125 ppm alone (Table 7)), 13%. The “Observed Control (%)” value with powdery mildew in wheat (BABA 250 ppm alone (Table 2)) was determined as 8%; with powdery mildew in wheat (BABA 250 ppm alone (Table 4)), 17%; in the assay on powdery mildew in wheat (BABA 250 ppm alone (Table 5)), 25%; in the assay on powdery mildew in wheat (BABA 250 ppm alone (Table 6)), 25%; in the assay with powdery mildew in wheat (BABA 250 ppm alone (Table 7)), 25%; in the assay with powdery mildew in wheat (BABA 500 ppm alone (Table 2)) it was 8%. Further, the “Observed Control (%)” value with powdery mildew in wheat (BABA 500 ppm alone (Table 5)) is reported as 63%; in the assay on powdery mildew in wheat (BABA 500 ppm alone (Table 6)), 63%; in the assay on powdery mildew in wheat (BABA 500 ppm alone (Table 7)), 63%; with powdery mildew in wheat (BABA 1000 ppm alone (Table 2)), 17%; with powdery mildew in wheat (BABA 1000 ppm alone (Table 4)), 33%; in the assay on powdery mildew in wheat (BABA 1000 ppm alone (Table 5)) it was 100%. For the same molecule, the “Observed Control (%)” value is listed as 100% in the assay on powdery mildew in wheat (BABA 1000 ppm alone (Table 6)); 100% with powdery mildew in wheat (BABA 1000 ppm alone (Table 7)); 0% in the assay on powdery mildew in barley (BABA 16 ppm alone (Table 3)); 50% in the assay with powdery mildew in barley (BABA 62 ppm alone (Table 3)); 14% in the assay with powdery mildew in barley (BABA 125 ppm alone (Table 1)); 14% with powdery mildew in barley (BABA 250 ppm alone (Table 1)). The “Observed Control (%)” value was 38% in the assay with powdery mildew in barley (BABA 250 ppm alone (Table 3)), 14% in the assay on powdery mildew in barley (BABA 500 ppm alone (Table 1)), 14% with powdery mildew in barley (BABA 1000 ppm alone (Table 1)) and 70% in the assay with powdery mildew in barley (BABA 1000 ppm alone (Table 3)).

Values taken from patent US6495572B1, “Synergistic mixtures of an amino acid” (Agrogene Ltd., priority 1997, dated 2002).
